{"source": "patent US12162889B2", "about": "“Luminogens for biological applications” (THE HONG KONG UNIVERSITY OF SCIENCE AND TECHNOLOGY, priority 2016, dated 2024)", "key": {"HeLa cells": {"system": "HeLa cells", "assay": "Cell imaging of living HeLa cells with AIE dots", "assay_type": "cell-based", "conditions": "dye as AIE dots, 12 h, 37° C.", "protocol": "Generally, 1 mg of the AIEgen and 5 mg of DSPE-PEG-Biotin were dissolved in 1 mL of chloroform. Subsequently, 9 mL of Milli-Q water was added into the chloroform solution under sonication for 10 minutes at room temperature using a microtip probe sonicator with an 18 W output (XL2000, Misonix Incorp., USA). The mixture was stirred in the nitrogen flow overnight until the chloroform was completely evaporated. A clear solution was obtained, and the solution was filtered through a 0.45 μm microfilter to result in the formation of AIE dots.\nCell Culture: HeLa cells were cultured in MEM containing 10% FBS and antibiotics (100 units/mL penicillin and 100 µg/mL streptomycin) in a 5% CO2 humidity incubator at 37° C. All culture media were supplemented with 10% heat-inactivated FBS, 100 units/mL penicillin, and 100 μg/mL streptomycin. Before the experiment, the cells were precultured until confluence was reached.\nCell Imaging: HeLa cells were grown overnight on a 35 mm petri dish with a cover slip at 37° C. After removal of the medium, the adherent cells were washed twice with 1× phosphate buffered saline (PBS) buffer. The AIE dots were then added to the chamber. After incubation for 12 hours, the cells were washed three times with 1×PBS buffer. The cells were imaged on a Zeiss laser scanning confocal microscope and analyzed using ZEN 2009 software."}, "Two-photon absorption": {"assay": "Two-photon absorption", "assay_type": "physicochemical", "source_text": "The TPA spectrum of AIE dots in water with the wavelength range from 800-1000 nm at 20 nm intervals was investigated. […] Moreover, a 900 nm fs laser expects to have deeper penetration and better focusing capability than the commonly used 770-860 nm Ti:Sapphire fs laser. Therefore, the TTS dots are a promising candidate for two-photon deep-tissue in vivo bioimaging."}, "[1]": {"assay": "Absorption spectra in solvents / aqueous media", "assay_type": "physicochemical", "source_text": "With introduction of extra arylamine units to the TTB molecule, the absorption peak of TTS is slightly red-shifted due to longer electronic conjugation.\n(§1) Due to the higher ΦF and much better processability of TTS, it was chosen for further biological applications. For easy dispersion of the highly hydrophobic TTS molecules in an aqueous environment, the TTS dots were formulated through a simple procedure by a nanoprecipitation method with amphiphilic and biocompatible 1,2-distearoyl-sn-glycero-3-phosphoethanolamine-N [methoxy(polyethyleneglycol)-2000] (DSPE-PEG 2000) as the encapsulation matrix (FIG. 70). […] TTS dots have an absorption maxima at 497 nm in aqueous media, which fits well with the commercial laser excitation at 488 nm. The strong emission of TTS dots (FIG. 71B) peaks at the red region (630 nm) and tails to the near-infrared region (820 nm). It is noteworthy that the Stokes shift of the TTS dots is big enough (>130 nm) to solve the serious problem of the self-quenching effect common in conventional organic dye molecules."}, "[2]": {"assay": "Photoluminescence (emission) spectra in solvents, THF/water aggregates, powder and dots", "assay_type": "physicochemical", "source_text": "The photoluminescence (PL) spectrum of TTS (FIG. 66) is basically a flat line parallel to the abscissa in pure THF. The spectral pattern remains unchanged at water content up to 40%. Afterwards, the PL intensity increases dramatically. The higher the water fraction, the stronger the emission intensity. The emission peak reaches to ˜636 nm. The emission intensity reaches its maximum value at 90% water content, which is 170-fold higher than that in pure THF\nWhen the solvent polarity was increased from Tol to NMP, the emission of TTB, TTA, and TTS are red-shifted with an emission quenching effect. […] However, compared with TTB molecule, TTA and TTS molecules are more sensitive to solvent polarity. TTA and TTS are emissive in Tol, weak emissive in DO and nonemissive in THF with medium polarity. In contrast, TTB is highly emissive in Tol, DO, and THF, and even in the high polarity solvent NMP, TTB is still emissive observed by the naked eye. […] It is probable that even in THF with medium polarity, the conformation of the TTA or TTS becomes twisted and the charge becomes separated.\nIn pure THF solution, it is non-emissive. The PL intensity remains unchanged at water fraction fw<50%. Afterwards, the PL intensity reaches its maximum value at 90% water content with emission peak at ˜635 nm. Thus, both TTS and TTA are AIE-active.\nas §1"}, "[3]": {"assay": "Energy band gap and HOMO/LUMO from absorption onset and onset oxidation potential", "assay_type": "physicochemical"}, "[4]": {"assay": "Fluorescence quantum yield and lifetime", "assay_type": "physicochemical"}, "[5]": {"conditions": "in methanol; cited from earlier work"}, "[6]": {"conditions": "aggregate, excitation 900 nm laser"}}, "data": [{"smiles": "COc1ccc(C(=C(c2ccccc2)c2ccc(-c3sc(-c4ccc(C(=C(c5ccc(OC)cc5)c5ccc(OC)cc5)c5ccccc5)cc4)c4nc(-c5ccccc5)c(-c5ccccc5)nc34)cc2)c2ccc(OC)cc2)cc1", "note": "[MTPE-TP, 5,7-bis(4-(2,2-bis(4-methoxyphenyl)-1-phenylvinyl)phenyl)-2,3-diphenylthieno[3,4-b′]pyrazine]", "values": [{"measurement": "fluorescence in cells", "setting": "HeLa cells", "value": "intense red fluorescence was observed in the cellular cytoplasms"}]}, {"smiles": "c1ccc(-c2nc3c(-c4ccc(N(c5ccccc5)c5cccc6ccccc56)cc4)c4nsnc4c(-c4ccc(N(c5ccccc5)c5cccc6ccccc56)cc4)c3nc2-c2ccccc2)cc1", "note": "[NPB-TQ, N,N′-((6,7-diphenyl-[1,2,5]thiadiazolo[3,4-g]quinoxaline-4,9-diyl)bis(4,1-phenylene))bis(N-phenylnaphthalen-1-amine)]", "values": [{"measurement": "two-photon absorption properties", "setting": "Two-photon absorption", "value": "excellent two-photon absorption properties"}]}, {"smiles": "CCCCCCCCN1c2ccc(-c3ccc(-c4ccc(N(c5ccccc5)c5ccccc5)cc4)c4nsnc34)cc2Sc2cc(-c3ccc(-c4ccc(N(c5ccccc5)c5ccccc5)cc4)c4nsnc34)ccc21", "note": "[PTZ-BT-TPA, 4,4′-((10-octyl-10H-phenothiazine-3,7-diyl)bis(benzo[c][1,2,5]thiadiazole-7,4-diyl))bis(N,N-diphenylaniline)]", "values": [{"measurement": "two-photon absorption properties", "setting": "Two-photon absorption", "value": "excellent two-photon absorption properties"}, {"measurement": "fluorescence in cells", "setting": "HeLa cells", "value": "intense red fluorescence was observed in the cellular cytoplasms"}]}, {"smiles": "c1ccc(C(=C(c2ccccc2)c2ccc(-c3ccc(N(c4ccc(-c5ccc(C(=C(c6ccccc6)c6ccccc6)c6ccccc6)cc5)cc4)c4ccc(-c5sc(-c6ccc(N(c7ccc(-c8ccc(C(=C(c9ccccc9)c9ccccc9)c9ccccc9)cc8)cc7)c7ccc(-c8ccc(C(=C(c9ccccc9)c9ccccc9)c9ccccc9)cc8)cc7)cc6)c6c5N=S=N6)cc4)cc3)cc2)c2ccccc2)cc1", "note": "[TPE-TPA-TT, N,N′-(thieno[3,4-b][1,2,5]thiadiazole-5,7-diylbis(4,1-phenylene))bis(4′-(1,2,2-triphenylvinyl)-N-(4′-(1,2,2-triphenylvinyl)-[1,1′-biphenyl]-4-yl)-[1,1′-biphenyl]-4-amine)]", "values": [{"measurement": "two-photon absorption properties", "setting": "Two-photon absorption", "value": "excellent two-photon absorption properties"}]}, {"smiles": "c1ccc(C(=C(c2ccccc2)c2ccc(N(c3ccc(-c4ccc(-c5ccc(N(c6ccc(C(=C(c7ccccc7)c7ccccc7)c7ccccc7)cc6)c6ccc(N(c7ccccc7)c7ccccc7)cc6)cc5)c5nsnc45)cc3)c3ccc(N(c4ccccc4)c4ccccc4)cc3)cc2)c2ccccc2)cc1", "note": "[TTS]", "values": [{"measurement": "maximum two-photon absorption cross section", "setting": "Two-photon absorption; [6]", "value": 310, "unit": "GM"}, {"measurement": "λab absorption maximum in THF", "setting": "[1]; THF (Table 2)", "value": 481, "unit": "nm"}, {"measurement": "λab absorption maximum", "setting": "[1]; solvent DO", "value": 478, "unit": "nm"}, {"measurement": "λab absorption maximum", "setting": "[1]; solvent NMP", "value": 484, "unit": "nm"}, {"measurement": "λab absorption maximum", "setting": "[1]; solvent THF", "value": 481, "unit": "nm"}, {"measurement": "λab absorption maximum", "setting": "[1]; solvent Tol", "value": 484, "unit": "nm"}, {"measurement": "λem emission maximum soln", "setting": "[2]; THF solution", "value": 641}, {"measurement": "λem emission maximum aggr", "setting": "[2]; THF/water mixture (1:9 by volume)", "value": 636}, {"measurement": "emission intensity at 90% water content relative to pure THF", "setting": "[2]; THF/water, 10 μM, excitation 480 nm", "value": 170, "unit": "fold"}, {"measurement": "emission peak in THF/water mixture", "setting": "[2]; aggregate state, high water content (90%)", "value": "~636", "unit": "nm"}, {"measurement": "λem emission maximum powder", "setting": "[2]; solid powder", "value": 636}, {"measurement": "λem emission maximum", "setting": "[2]; solvent DO, excitation 480 nm", "value": 640, "unit": "nm"}, {"measurement": "λem emission maximum", "setting": "[2]; solvent Tol, excitation 480 nm", "value": 623, "unit": "nm"}, {"measurement": "LUMO", "setting": "[3]; LUMO = HOMO + Eg", "value": "−2.84", "unit": "eV"}, {"measurement": "Eg energy band gap", "setting": "[3]; calculated from the onset of the absorption spectrum", "value": 2.21, "unit": "eV"}, {"measurement": "HOMO", "setting": "[3]; calculated from the onset oxidation potential", "value": "−5.05", "unit": "eV"}, {"measurement": "fluorescence quantum yield ΦF soln", "setting": "[4]; THF solution, in parentheses", "value": "(0.1) %"}, {"measurement": "quantum efficiency relative to rhodamine B", "setting": "[4]; [6]", "value": 38.5, "unit": "%"}, {"measurement": "τ fluorescence lifetime of solid powders", "setting": "[4]; solid powder", "value": 1.86, "unit": "ns"}, {"measurement": "solid powders fluorescence quantum yield ΦF", "setting": "[4]; solid powder, in parentheses", "value": "(34.1) %"}]}, {"smiles": "CCN(CC)c1ccc2c(-c3ccccc3C(=O)O)c3ccc(=[N+](CC)CC)cc-3oc2c1.[Cl-]", "note": "[rhodamine B]", "values": [{"measurement": "ΦF of reference", "setting": "[5]", "value": 41.9, "unit": "%"}]}]}
